Assay results published in patent US10294202B2, “Pyrrolidinones as herbicides” (FMC Corporation, priority 2013, dated 2019).

Experiments:
[1] = tested on: kochia; test: Test A pre-/postemergence herbicide test; type: in vivo, Kochia scoparia
Outline: (§1)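 Visual injury ratings, 0 = no effect, 100 = complete control, taken ~10 days after treatment against untreated greenhouse controls. Preemergence: directed soil spray onto seeded loam/sand pots. Postemergence: spray onto plants at one- to two-leaf stage, 2–10 cm tall.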

[2] = tested on: ragweed; test: Test A pre-/postemergence herbicide test; type: in vivo, Ambrosia elatior
Outline: as §1

[3] = tested on: blackgrass; test: Test A postemergence herbicide test; type: in vivo, Alopecurus myosuroides
Outline: (§2)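 Plants at the one- to two-leaf stage, 2–10 cm tall, grown in loam/sand pots, received postemergence sprays of the test chemicals. After about 10 days in the greenhouse, injury was scored visually against untreated controls on a 0–100 scale (0 none, 100 complete control).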

[4] = tested on: galium; test: Test A postemergence herbicide test; type: in vivo, Galium aparine
Outline: as §2

[5] = tested on: rice; test: Test C flooded paddy test; type: in vivo, Oryza sativa; conditions: Flood
Outline: (§3)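 Visual injury scored against controls after 13 to 15 days in the greenhouse, using 0 (no effect) to 100 (complete control). Test compounds went straight into paddy water held 3 cm above the soil surface on 2-leaf-stage plants, with that flood depth maintained for the whole test.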

[6] = tested on: sedge, umbrella; test: Test C flooded paddy test; type: in vivo, Cyperus difformis; conditions: Flood
Outline: as §3

[7] = tested on: ducksalad; test: Test C flooded paddy test; type: in vivo, Heteranthera limosa; conditions: Flood
Outline: as §3

[8] = tested on: barnyardgrass; test: Test C flooded paddy test; type: in vivo, Echinochloa crus-galli; conditions: Flood
Outline: as §3

[9] = Postemergence, 125 g ai/ha, 0 to 100 scale, 0 is no effect, 100 is complete control
[10] = Postemergence, 500 g ai/ha, 0 to 100 scale (0 no effect, 100 complete control)
[11] = Preemergence, 125 g ai/ha, 0 to 100 scale where 0 is no effect and 100 is complete control
[12] = preemergence, 500 g ai/ha, 0 to 100 scale, 0 is no effect and 100 is complete control
[13] = Postemergence, 125 g ai/ha, visual rating on 0 to 100 scale (0 no effect, 100 complete control), approx. 10 days
[14] = 125 g ai/ha, 0 to 100 scale, 0 is no effect, 100 is complete control
[15] = 500 g ai/ha, 0 to 100 scale (0 no effect, 100 complete control)
[16] = 62 g ai/ha, scale of 0 to 100 where 0 is no effect and 100 is complete control, 13 to 15 days
[17] = 125 g ai/ha, scale of 0 to 100 where 0 is no effect and 100 is complete control, 13 to 15 days
[18] = 250 g ai/ha, scale of 0 to 100 where 0 is no effect and 100 is complete control, 13 to 15 days
[19] = 125 g ai/ha, visual rating, 0 to 100 scale, 0 no effect, 100 complete control, approximately 10 days, preemergence
[20] = Preemergence, 500 g ai/ha, visual rating on 0 to 100 scale (0 no effect, 100 complete control)
[21] = 125 g ai/ha, visual rating on 0 to 100 scale (0 no effect, 100 complete control), approx. 10 days
[22] = 31 g ai/ha, scale of 0 to 100 where 0 is no effect and 100 is complete control, 13 to 15 days

Compound	Plant response rating, Kochia [1, 9]	Plant response rating, Kochia [1, 12]	Plant response rating, Ragweed [2, 12]	Plant response rating, Blackgrass [3, 14]	Plant response rating, Galium [4, 14]	Plant response rating, Rice [5, 16]	Plant response rating, Rice [5, 17]	Plant response rating, Rice [5, 18]	Plant response rating, Rice ([5]; 500 g ai/ha, scale 0 to 100)	Plant response rating, Sedge, Umbrella [6, 16]	Plant response rating, Sedge, Umbrella [6, 17]	Plant response rating, Sedge, Umbrella [6, 18]	Plant response rating, Sedge, Umbrella ([6]; 500 g ai/ha, scale 0 to 100)	Plant response rating, Ducksalad [7, 16]	Plant response rating, Ducksalad [7, 17]	Plant response rating, Ducksalad [7, 18]	Plant response rating, Ducksalad ([7]; 500 g ai/ha, scale 0 to 100)	Plant response rating, Barnyardgrass [8, 16]	Plant response rating, Barnyardgrass [8, 17]	Plant response rating, Barnyardgrass [8, 18]	further results
CN1CC(c2cccc(C(F)(F)F)c2)C(C(=O)Nc2ccccc2F)C1=O (stereo not drawn) [Compound 277]	30	60	20	50	70	0	0	0	0	0	0	0	0	65	80	85	95	50	65	70	Plant response rating, Kochia [1, 10]: 30; Plant response rating, Kochia [1, 11]: 30; Plant response rating, Ragweed [2, 13]: 30; Plant response rating, Ragweed [2, 10]: 30; Plant response rating, Ragweed [2, 11]: 20; Plant response rating, Blackgrass [3, 15]: 50; Plant response rating, Galium [4, 15]: 70; Plant response rating, Barnyardgrass ([8]; 500 g ai/ha, scale 0 to 100): 70
O=C1NCC(c2cccc(C(F)F)c2)C1C(=O)Nc1cccc(F)c1F (racemic) [Compound 211]	40	70	80	50	60		0	0	15		0	0	0		60	100	75		0	50	Plant response rating, Kochia [1, 19]: 40; Kochia plant response rating (0 to 100 scale, 0 is no effect, 100 is complete control) ([1]; Postemergence, 500 g ai/ha): 60; Plant response rating, Ragweed [2, 19]: 30; Plant response rating, Ragweed [2, 9]: 0; Ragweed plant response rating (0 to 100 scale, 0 is no effect, 100 is complete control) ([2]; Postemergence, 500 g ai/ha): 30; Blackgrass plant response rating (0 to 100 scale, 0 is no effect, 100 is complete control) ([3]; 500 g ai/ha): 70; Galium plant response rating (0 to 100 scale, 0 is no effect, 100 is complete control) ([4]; 500 g ai/ha): 70; Plant response rating, Rice ([5]; 1000 g ai/ha, scale 0 to 100): 15; Plant response rating, Sedge, Umbrella ([6]; 1000 g ai/ha, scale 0 to 100): 30; Plant response rating, Ducksalad ([7]; 1000 g ai/ha, scale 0 to 100): 100; Plant response rating, Barnyardgrass ([8]; 500 g ai/ha, scale 0 to 100): 55; Plant response rating, Barnyardgrass ([8]; 1000 g ai/ha, scale 0 to 100): 80
O=C1NCC(c2cccc(C(F)(F)F)c2)C1C(=O)Nc1ccccc1Cl (stereo not drawn) [Compound 312]						0	0	0		0	0	0		60	65	95		0	30	60	Plant response rating, Kochia [1, 13]: 20; Plant response rating, Kochia [1, 10]: 40; Plant response rating, Kochia [1, 11]: 20; Kochia plant response rating [1, 20]: 70; Plant response rating, Ragweed [2, 13]: 20; Plant response rating, Ragweed [2, 10]: 40; Plant response rating, Ragweed [2, 11]: 0; Ragweed plant response rating [2, 20]: 30; Plant response rating, Blackgrass [3, 21]: 40; Plant response rating, Blackgrass [3, 15]: 50; Plant response rating, Galium [4, 21]: 30; Plant response rating, Galium [4, 15]: 50; Plant response rating, Rice [5, 22]: 0; Plant response rating, Sedge, Umbrella [6, 22]: 0; Plant response rating, Ducksalad [7, 22]: 50; Plant response rating, Barnyardgrass [8, 22]: 0
O=C1NCC(c2cccc(Cl)c2)C1C(=O)Nc1cccc(F)c1F (racemic) [Compound 275]	50	80	40	50	60	0	0	10	10	0	0	0	0	85	100	100	100	35	45	60	Plant response rating, Kochia [1, 10]: 80; Plant response rating, Kochia [1, 11]: 60; Plant response rating, Ragweed [2, 13]: 30; Plant response rating, Ragweed [2, 10]: 30; Plant response rating, Ragweed [2, 11]: 20; Plant response rating, Blackgrass [3, 15]: 60; Plant response rating, Galium [4, 15]: 70; Plant response rating, Barnyardgrass ([8]; 500 g ai/ha, scale 0 to 100): 70
O=C1NCC(c2cccc(OC(F)F)c2)C1C(=O)Nc1ccccc1F (stereo not drawn) [Compound 223]	50	80	50	60	50	0	0	0		0	0	0		50	65	95		0	0	0	Plant response rating, Kochia [1, 19]: 30; Kochia plant response rating (0 to 100 scale, 0 is no effect, 100 is complete control) ([1]; Postemergence, 500 g ai/ha): 70; Plant response rating, Ragweed [2, 19]: 30; Plant response rating, Ragweed [2, 9]: 0; Ragweed plant response rating (0 to 100 scale, 0 is no effect, 100 is complete control) ([2]; Postemergence, 500 g ai/ha): 30; Blackgrass plant response rating (0 to 100 scale, 0 is no effect, 100 is complete control) ([3]; 500 g ai/ha): 70; Galium plant response rating (0 to 100 scale, 0 is no effect, 100 is complete control) ([4]; 500 g ai/ha): 60; Plant response rating, Rice [5, 22]: 0; Plant response rating, Sedge, Umbrella [6, 22]: 0; Plant response rating, Ducksalad [7, 22]: 30; Plant response rating, Barnyardgrass [8, 22]: 0
O=C1NCC(c2cccc(C(F)(F)F)c2)C1C(=O)Nc1ccc(F)cc1F (racemic) [Compound 207]	0	30	20	70	0		15	15	15		0	0	0		60	75	100		40	60	Plant response rating, Kochia [1, 19]: 20; Kochia plant response rating (0 to 100 scale, 0 is no effect, 100 is complete control) ([1]; Postemergence, 500 g ai/ha): 0; Plant response rating, Ragweed [2, 19]: 0; Plant response rating, Ragweed [2, 9]: 0; Ragweed plant response rating (0 to 100 scale, 0 is no effect, 100 is complete control) ([2]; Postemergence, 500 g ai/ha): 0; Blackgrass plant response rating (0 to 100 scale, 0 is no effect, 100 is complete control) ([3]; 500 g ai/ha): 70; Galium plant response rating (0 to 100 scale, 0 is no effect, 100 is complete control) ([4]; 500 g ai/ha): 50; Plant response rating, Rice ([5]; 1000 g ai/ha, scale 0 to 100): 15; Plant response rating, Sedge, Umbrella ([6]; 1000 g ai/ha, scale 0 to 100): 0; Plant response rating, Ducksalad ([7]; 1000 g ai/ha, scale 0 to 100): 80; Plant response rating, Barnyardgrass ([8]; 500 g ai/ha, scale 0 to 100): 70; Plant response rating, Barnyardgrass ([8]; 1000 g ai/ha, scale 0 to 100): 75
